Series [1] is filed under the species Rattus norvegicus. As to the kind of experiment: Bronchodilator activity in Sprague-Dawley rat. In kind it is functional, organism-based.
The subject of series [2] is Leishmania major. Briefly: Antileishmanial activity against promastigotes stage of Leishmania major. The format is functional, organism-based.
For series [3], the system named is Leishmania major. Briefly: Potency index, ratio of test compound IC50 to miltefosine IC50 for antileishmanial activity against promastigotes stage of leishmania major. In kind it is functional.
Series [4] deals with Leishmania major. Briefly: Potency index, ratio of test compound IC50 to amphotericin B IC50 for antileishmanial activity against promastigotes stage of leishmania major. The format is functional.
Series [5] deals with Trypanosoma cruzi. As to the kind of experiment: Trypanocidal activity against epimastigote stage of Trypanosoma cruzi. The format is functional, organism-based.
Series [6] deals with Trypanosoma cruzi. Briefly: Trypanocidal activity against amastigote stage of Trypanosoma cruzi. In kind it is functional, organism-based.
The subject of another series is RS4-11. As to the kind of experiment: Antiproliferative activity against human RS4-11 cells assessed as cell growth inhibition incubated for 48 hrs by MTT assay. The conditions noted are these: RS4-11, 48 h. In kind it is functional, cell-based.
In series [7] the target is Tubulin (Bos taurus, UniProt Q6B856+Q862L2+Q862F3). As to the kind of experiment: Inhibition of bovine brain tubulin polymerization incubated for 20 mins in presence of GTP.
Another series deals with HT-29. As to the kind of experiment: Antiproliferative activity against human HT-29 cells assessed as cell growth inhibition incubated for 48 hrs by MTT assay. The settings on record: HT-29, 48 h. The format is functional, cell-based. In general terms: Formazan colour is commonly taken as a measure of viable cells.
The test system of another series is HeLa. As to the kind of experiment: Antiproliferative activity against human HeLa cells assessed as cell growth inhibition incubated for 48 hrs by MTT assay. In kind it is functional, cell-based.
The test system of a further series is Jurkat. Briefly: Antiproliferative activity against human jurkat cells assessed as cell growth inhibition incubated for 48 hrs by MTT assay. In kind it is functional, cell-based.
A further series deals with MCF7. Briefly: Antiproliferative activity against human MCF7 cells assessed as cell growth inhibition incubated for 48 hrs by MTT assay. The settings on record: MCF7, 48 h. In kind it is functional, cell-based.
A further series has as its target DNA topoisomerase II (Homo sapiens, UniProt P11388+Q02880). As to the kind of experiment: Inhibition of human Topoisomerase 2 incubated for 30 mins by ELISA assay. The format is protein assay. Background: An ELISA detects its analyte on a solid surface through an enzyme-linked reagent.
Series [8] is described as follows: Inhibition of 5 alpha reductase (unknown origin).
A further series relates to Mus musculus. Briefly: Anticonvulsant activity in ip dosed mouse. In kind it is functional.
Series [9] in a line: Protection index, ratio of TD50 for neurotoxicity in ip dosed mouse to ED50 for anticonvulsant activity in ip dosed mouse. The conditions noted are these: in vivo, read-out: Ratio TD50/ED50. In kind it is toxicity, organism-based.
In another series the test system is Candida albicans. As to the kind of experiment: Antifungal activity against Candida albicans assessed as fungal growth inhibition incubated for 16 hrs. The format is functional.
For series [10], the system named is Staphylococcus aureus. As to the kind of experiment: Antibacterial activity against Staphylococcus aureus assessed as bacterial growth inhibition incubated for 16 hrs. In kind it is functional.
The subject of another series is Plasmodium falciparum. As to the kind of experiment: Antimalarial activity against Chloroquine resistant Plasmodium falciparum W2. In kind it is functional, organism-based.
Series [11] has as its target Epidermal growth factor receptor (Homo sapiens, UniProt P00533). As to the kind of experiment: Inhibition of EGFR (unknown origin) […] insect sf9 cells incubated for 1 hrs in presence of ATP.
Series [12] in a line: Inhibition of BRAF V600E mutant (unknown origin) incubated for 25 mins in presence of ATP by ELISA assay. Details: species or system Homo sapiens.
Series [13] has as its target Tubulin. As to the kind of experiment: Inhibition of tubulin (unknown origin). In kind it is protein-complex assay, Homo sapiens.
The subject of series [14] is Rattus norvegicus. Briefly: Antiinflammatory activity in rat assessed as reduction in carrageenan induced edema at 10 mg/kg, po measured after 4 to 5 hrs relative to control. In kind it is functional. Details: scale not given: the % may be the effect or the level left. The conditions noted are these: time 4-5 hrs.
Series [15] concerns Xanthomonas oryzae pv. oryzae. Briefly: Antibacterial activity against Xanthomonas oryzae pv. oryzae assessed as bacterial growth inhibition by turbidimetric method. The format is functional, organism-based.
For another series, the target named is DNA gyrase (Escherichia coli, UniProt P0AES4+P0AES6). As to the kind of experiment: Inhibition of Escherichia coli DNA gyrase supercoiling activity by Microplate Assay kit method. In kind it is protein-complex assay.
Series [16] deals with Mycobacterium tuberculosis. Briefly: Antimycobacterial activity against Mycobacterium tuberculosis H37Rv measured after 7 days. The conditions noted are these: 168 h, time 7 day. The format is functional.
Series [17] deals with Acinetobacter haemolyticus. Briefly: Antibacterial activity against Acinetobacter haemolyticus ATCC 19002 assessed as bacterial growth inhibition by double micro dilution method. In kind it is functional.
For series [18], the system named is Staphylococcus aureus. As to the kind of experiment: Antibacterial activity against Staphylococcus aureus ATCC 25923 assessed as bacterial growth inhibition by double micro dilution method. In kind it is functional.
The test system of the next series is Enterococcus faecalis. As to the kind of experiment: Antibacterial activity against Enterococcus faecalis ATCC 29212 assessed as bacterial growth inhibition by double micro dilution method. In kind it is functional.
Another series relates to Klebsiella pneumoniae. As to the kind of experiment: Antibacterial activity against Klebsiella pneumoniae ATCC 13883 assessed as bacterial growth inhibition by double micro dilution method. In kind it is functional.
For the next series, the system named is Pseudomonas aeruginosa. Briefly: Antibacterial activity against Pseudomonas aeruginosa ATCC 27853 assessed as bacterial growth inhibition by double micro dilution method. In kind it is functional.
In a further series the test system is Escherichia coli. Briefly: Antibacterial activity against Escherichia coli ATCC 25922 assessed as bacterial growth inhibition by double micro dilution method. The format is functional.
Series [19] has as its system Rattus norvegicus. Briefly: Antiinflammatory activity in rat assessed as reduction in edema at 17 mg/kg, ip measured after 5 hrs relative to control. The format is functional. Details: scale not given: the % may be the effect or the level left.
The subject of series [20] is Xanthomonas oryzae pv. oryzae. Briefly: Antibacterial activity against Xanthomonas oryzae pv. oryzae assessed as bacterial growth inhibition. In kind it is functional, organism-based.

Converted amounts (≈) assume the structure as drawn.

Sequence of Epidermal growth factor receptor (P00533 whole entry): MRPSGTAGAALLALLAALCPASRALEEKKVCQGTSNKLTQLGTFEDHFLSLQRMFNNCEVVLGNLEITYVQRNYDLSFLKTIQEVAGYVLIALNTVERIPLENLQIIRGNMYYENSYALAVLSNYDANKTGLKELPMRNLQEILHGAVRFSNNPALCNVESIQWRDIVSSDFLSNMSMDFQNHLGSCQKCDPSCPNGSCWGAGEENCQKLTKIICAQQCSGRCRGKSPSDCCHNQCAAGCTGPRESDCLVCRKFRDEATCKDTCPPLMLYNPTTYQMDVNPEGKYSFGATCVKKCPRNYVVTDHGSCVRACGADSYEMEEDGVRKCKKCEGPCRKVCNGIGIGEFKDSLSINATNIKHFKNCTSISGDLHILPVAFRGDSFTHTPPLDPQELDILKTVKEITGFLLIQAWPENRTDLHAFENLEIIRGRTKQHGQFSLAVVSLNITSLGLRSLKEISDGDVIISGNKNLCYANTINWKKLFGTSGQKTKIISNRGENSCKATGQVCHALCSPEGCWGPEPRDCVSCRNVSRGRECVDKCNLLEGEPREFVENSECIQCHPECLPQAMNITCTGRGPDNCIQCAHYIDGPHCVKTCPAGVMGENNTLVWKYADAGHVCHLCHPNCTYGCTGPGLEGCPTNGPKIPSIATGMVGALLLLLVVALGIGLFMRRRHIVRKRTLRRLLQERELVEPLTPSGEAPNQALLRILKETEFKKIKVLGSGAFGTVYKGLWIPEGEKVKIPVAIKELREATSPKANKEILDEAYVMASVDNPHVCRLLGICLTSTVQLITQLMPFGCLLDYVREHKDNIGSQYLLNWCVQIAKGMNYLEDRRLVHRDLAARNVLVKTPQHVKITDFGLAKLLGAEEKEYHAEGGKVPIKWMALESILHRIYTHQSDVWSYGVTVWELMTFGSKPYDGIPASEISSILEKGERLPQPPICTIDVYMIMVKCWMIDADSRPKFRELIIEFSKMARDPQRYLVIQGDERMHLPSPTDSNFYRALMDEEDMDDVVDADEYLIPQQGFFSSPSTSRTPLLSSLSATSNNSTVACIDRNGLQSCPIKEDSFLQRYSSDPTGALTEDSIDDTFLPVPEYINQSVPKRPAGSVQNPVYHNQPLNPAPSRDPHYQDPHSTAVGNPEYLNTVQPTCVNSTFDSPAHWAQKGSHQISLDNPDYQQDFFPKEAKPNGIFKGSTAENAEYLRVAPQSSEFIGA

The EC50 is the concentration giving half of the maximal effect. On to `Cn1c(=O)c2nc[nH]c2n(C)c1=O` [THEOPHYLLINE], for which it took 425000 nM to reach a half-maximal effect in the series filed under Rattus norvegicus [1] (EC50).
One may read the IC50 as the concentration at which inhibition is half-maximal. For the molecule `CC1(c2ccccc2O)NN=C(N)N1C(Cc1cc2ccccc2[nH]1)C(=O)O` (stereo not given), the IC50 in the series on Leishmania major [2] amounted to 0.0312 µg/mL (≈ 0.0822 µM). Moreover, the “Ratio IC50” value in the series with Leishmania major [3] and with Leishmania major [4] was 36 in each case.
For the molecule `C(/C=C/c1ccc2c(c1)OCO2)=C\C1=NNC(SCc2ccccc2)N1C1CCCCC1` (stereo not given), the results for the IC50 in the series with Trypanosoma cruzi [5] and in the series on Trypanosoma cruzi [6] were 3180 nM and 3610 nM, respectively.
`COc1ccc(-c2nc(N)n(C(=O)c3cc(OC)c(OC)c(OC)c3)n2)cc1`: the IC50 in the series on RS4-11 was below 1000 nM; on Tubulin [7] it was 970 nM; in the series with HT-29, below 1000 nM; with HeLa, below 1000 nM; with Jurkat, below 1000 nM; with MCF7, below 1000 nM.
In the case of `O=C(CSc1nc2ccccc2n2cnnc12)Nc1ccc(S(=O)(=O)Nc2nccs2)cc1`, the IC50 at DNA topoisomerase II was 1100 nM.
`CC(C)(C#N)c1cc(Cn2cncn2)cc(C(C)(C)C#N)c1` showed an ED50 in series [8] of 1090 nM.
In the series on Mus musculus, `O=c1[nH]nc2n1-c1ccc(OCc3ccc(F)cc3)cc1SC2` gave an ED50 of 9.2 mg/kg. Also, the selectivity ratio in [9] was 15.4.
A word on the MIC: it is the lowest concentration that inhibits growth of the organism. Take `COc1ccc(/C=N/n2c(S)nnc2CNC(=O)c2ccc(C)cc2)cc1OC`: the MIC with Candida albicans and with Staphylococcus aureus [10] was 3.12 µg/mL (≈ 7.59 µM) throughout.
For the molecule `Cc1cc(Nc2ccc(Cl)c(Cl)c2)n2nc(C(F)(F)F)nc2n1`, the IC50 in the series on Plasmodium falciparum was determined as 23 nM.
Regarding `COc1cc(C(=O)n2nc(-c3ccc(C)cc3)nc2N)cc(OC)c1OC`, the IC50 was below 1000 nM in the series on RS4-11; 660 nM on Tubulin [7]; below 1000 nM in the series with HT-29; below 1000 nM with HeLa; below 1000 nM in the series with Jurkat; below 1000 nM in the series on MCF7.
As for `COc1ccc(C(=O)n2nc(-c3cccnc3)nc2N)cc1`, the values for the IC50 (in [11]; in series [12]; on Tubulin [13]) were 3600 nM, 1900 nM and 957 nM, respectively.
With `Clc1cccc(Cl)c1Nc1ccccc1Cc1nncn1Nc1nc2ccccc2s1`, the Activity in the series with Rattus norvegicus [14] is 85.31%.
Regarding `CCOC(=O)c1nc(Sc2nnc3c(Cl)cccn23)c2ccccc2n1`, the half-maximal effective concentration (EC50) in series [15] amounted to 7.2 µg/mL (≈ 18.7 µM).
`CCn1cc(-c2nc(/N=C/c3ccc(F)cc3)n[nH]2)c(=O)c2ccc(C)nc21`: half-maximal inhibition against DNA gyrase (IC50) required 9750 nM.
With `Cc1cc(Nc2ccc(C(F)(F)F)cc2)n2nc(C(F)(F)F)nc2n1`, in the series with Plasmodium falciparum, half-maximal inhibition (IC50) was put at 23 nM.
Take `CC(C)C(C(=O)O)N1C(N)=NNC1(C)c1ccccc1O` (stereo not given): the IC50 in the series on Leishmania major [2] was 0.0312 µg/mL (≈ 0.107 µM). The “Ratio IC50” value in the series on Leishmania major [3] and in the series on Leishmania major [4] was 36 throughout.
In the case of `O=C(CSc1nnc(COc2ccccc2)n1-c1ccc(Cl)cc1)Nc1nc2ccccc2s1`, the Activity in the series with Rattus norvegicus [14] is 84.43%.
On to `O=[N+]([O-])c1ncn(CCCCNS(=O)(=O)c2scc(Cl)c2Cl)n1`, for which, in series [16], the MIC came to 1.56 µg/mL (≈ 3.9 µM).
Consider `CCn1c(CN2CCN(c3ccccc3)CC2)nn(CN2CCN(c3cc4c(cc3F)c(=O)c(C(=O)O)cn4C3CC3)CC2)c1=S`, for which the MIC (in series [17]; in the series on Staphylococcus aureus [18]; with Enterococcus faecalis; in the series on Klebsiella pneumoniae; with Pseudomonas aeruginosa; in the series with Escherichia coli) was 0.125 µg/mL (≈ 0.193 µM) throughout.
Consider `O=C(Nc1ccccc1)C1=NN(c2ccccc2)/C(=C2/C=NN(Cc3cc4ccccc4oc3=O)C2=O)N1c1ccccc1`, for which the ED50 in [8] was 150 nM.
In the case of `S=c1[nH]nc(/C=C/C=C/c2ccc3c(c2)OCO3)n1C1CCCCC1`, the results for the IC50 in the series with Trypanosoma cruzi [5] and with Trypanosoma cruzi [6] were 18300 nM and 8870 nM, respectively.
Take `C=Cn1c(SCC(=O)Nc2ccc(/C(C)=N/O)cc2)nnc1-c1cc(-c2ccc(OC)cc2)nc2ccccc12`: the Activity in the series with Rattus norvegicus [19] amounted to 111%.
Turning to `Cc1nc2[nH]cc(-c3n[nH]c(=S)n3-c3ccccc3)c(=O)n2n1`, a half-maximal response in the series filed under Rattus norvegicus [1] (EC50) required 18600 nM.
On to `S=c1[nH]nc(NCNc2n[nH]c(=S)s2)s1`, for which the EC50 in series [20] was determined as 85.6 µg/mL (≈ 307 µM); in series [15], 89.8 µg/mL (≈ 323 µM).
